Data taken from patent US9573964B2, “Oxygen linked pyrimidine derivatives” (CTI BIOPHARMA CORP., priority 2005, dated 2017).

Columns and labels:
JAK2 = biological target: T1, JAK2 (Homo sapiens, UniProt O60674); experiment: In vitro kinase activity assay (PKLight), JAK2; type: biochemical
T1 construct: purchased Invitrogen PV4210
Description: (§1) All assays were carried out in 384-well white microtiter plates using the PKLight assay system from Cambrex (East Rutherford, N.J.). This assay platform is essentially a luminometric assay for the detection of ATP in the reaction using a luciferase-coupled reaction. For CDK2/Cyclin A assay, the reaction mixture consisted of the following components in 25 μL assay buffer (50 mM Hepes pH 7.5, 10 mM MgCl2, 5 mM MnCl2, 5 mM BGP, 1 mM DTT, 0.1 mM sodium orthovanadate), 1.4 μg/mL of CDK2/Cyclin A complex, 0.5 μM of RbING substrate (Invitrogen, Cat #PV2939) and 0.5 μM of ATP. The compounds were tested at 8 concentrations prepared from 4-fold serial dilution starting at 10 μM. The reaction was incubated at room temperature for 2 hr. 13 μL of PKLight ATP detection reagent was added and the reaction was incubated for 10 min. Luminescence signals were detected on a multi-label plate reader (Victor^2 V 1420, Perkin-Elmer). The other kinase assays were identical except for the following differences in reagents. For FLT3 assays, the reaction contained 2.0 μg/mL FLT3 enzyme, 5 μM of poly(Glu,Tyr) substrate (Sigma, Cat #P0275) and 4 μM of ATP. For JAK2 assays, the reaction contained 0.6 μg/mL of JAK2 enzyme, 2 μM of poly(Glu,Ala,Tyr) substrate (Sigma, Cat #P3899) and 0.2 μM of ATP. […] The analytical software, Prism 4.0 (GraphPad Software Pte Ltd) was used to generate IC50 values from the data.

[1] = test system: HL60 (acute myeloid leukemia cell line); experiment: Cell-based proliferation assay for GI50, HL60; conditions: Homo sapiens, HL-60; HL60 cells, 96 h treatment
Description: (§2) Human cancer cell lines HL60 (acute myeloid leukemia cell line), Colo205 (colon adenocarcinoma cell line), HEL92.1.7 (erythroleukemia cell line) and MV4-11 (acute myeloid leukemia cell line) were obtained from ATCC. They were cultivated in the media according to the ATCC work instructions. Colo205 cells were seeded in 96-wells plate at 5000 cells per well. HEL92.1.7 and MV4-11 cells were seeded at 6000 cells per well while HL60 cells were seeded at 8000 cells per well in 96 well plate. The plates were incubated at 37° C., 5% CO2, for 24 h. Cells were treated with compounds at various concentrations for 96 h. Cell growth was then monitored using Celltiter96 Aqueous One Solution Cell Proliferation Assay from Promega (Madison Wis.). Dose response curves were plotted to determine GI50 values for the compounds using XL-fit (ID Business Solution, Emeryville, Calif.).

[2] = test system: MV4-11 (acute myeloid leukemia cell line); experiment: Cell-based proliferation assay for GI50, MV4-11; conditions: Homo sapiens; MV4-11 cells, 96 h treatment
Description: as §2

JAK2 V617F = biological target: T2, JAK2 V617F (Homo sapiens, UniProt O60674, V617F); experiment: In vitro kinase activity assay (PKLight), JAK2 V617F mutant; type: biochemical
T2 construct: purchased Invitrogen PV4347
T2 sequence (O60674 whole entry V617F): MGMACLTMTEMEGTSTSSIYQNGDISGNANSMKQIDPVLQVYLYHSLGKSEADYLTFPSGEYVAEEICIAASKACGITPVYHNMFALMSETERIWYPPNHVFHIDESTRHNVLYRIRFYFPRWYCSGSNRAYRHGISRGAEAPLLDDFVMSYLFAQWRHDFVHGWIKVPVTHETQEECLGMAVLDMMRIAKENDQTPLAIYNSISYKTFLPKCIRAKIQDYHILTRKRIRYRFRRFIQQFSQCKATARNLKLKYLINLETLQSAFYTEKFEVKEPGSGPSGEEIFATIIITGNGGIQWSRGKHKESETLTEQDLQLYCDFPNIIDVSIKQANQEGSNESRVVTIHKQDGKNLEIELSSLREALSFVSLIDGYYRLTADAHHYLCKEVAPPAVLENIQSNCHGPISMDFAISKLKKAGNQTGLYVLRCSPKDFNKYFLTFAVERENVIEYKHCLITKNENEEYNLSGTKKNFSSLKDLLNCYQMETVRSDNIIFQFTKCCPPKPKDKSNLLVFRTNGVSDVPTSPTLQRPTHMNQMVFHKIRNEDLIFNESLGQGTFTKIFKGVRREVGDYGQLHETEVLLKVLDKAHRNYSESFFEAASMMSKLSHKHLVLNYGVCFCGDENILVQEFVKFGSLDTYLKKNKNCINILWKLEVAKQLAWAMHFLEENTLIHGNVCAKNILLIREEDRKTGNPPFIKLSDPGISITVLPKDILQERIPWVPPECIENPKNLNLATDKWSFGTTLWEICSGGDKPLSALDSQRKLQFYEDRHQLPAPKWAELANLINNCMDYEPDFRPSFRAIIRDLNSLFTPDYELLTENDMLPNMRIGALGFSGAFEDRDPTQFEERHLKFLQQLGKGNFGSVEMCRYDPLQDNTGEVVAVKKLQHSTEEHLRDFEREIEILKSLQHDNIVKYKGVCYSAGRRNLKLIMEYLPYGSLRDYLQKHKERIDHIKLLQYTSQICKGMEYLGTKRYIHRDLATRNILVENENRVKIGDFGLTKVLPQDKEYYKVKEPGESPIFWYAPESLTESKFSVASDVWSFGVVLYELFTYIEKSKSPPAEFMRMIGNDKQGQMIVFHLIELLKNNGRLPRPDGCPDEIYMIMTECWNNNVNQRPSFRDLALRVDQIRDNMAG
Description: as §1

[3] = test system: Colo205 (colon adenocarcinoma cell line); experiment: Cell-based proliferation assay for GI50, Colo205; conditions: Homo sapiens, COLO 205; Colo205 cells, 96 h treatment
Description: as §2

[4] = test system: HEL92.1.7 (erythroleukemia cell line); experiment: Cell-based proliferation assay for GI50, HEL92.1.7; conditions: Homo sapiens, HEL 92.1.7; HEL92.1.7 cells, 96 h treatment
Description: as §2

FLT3 = biological target: T3, FLT3 (Homo sapiens, UniProt P36888); experiment: In vitro kinase activity assay (PKLight), FLT3; type: biochemical
T3 construct: purchased Invitrogen PV3182
T3 sequence (P36888 27-993): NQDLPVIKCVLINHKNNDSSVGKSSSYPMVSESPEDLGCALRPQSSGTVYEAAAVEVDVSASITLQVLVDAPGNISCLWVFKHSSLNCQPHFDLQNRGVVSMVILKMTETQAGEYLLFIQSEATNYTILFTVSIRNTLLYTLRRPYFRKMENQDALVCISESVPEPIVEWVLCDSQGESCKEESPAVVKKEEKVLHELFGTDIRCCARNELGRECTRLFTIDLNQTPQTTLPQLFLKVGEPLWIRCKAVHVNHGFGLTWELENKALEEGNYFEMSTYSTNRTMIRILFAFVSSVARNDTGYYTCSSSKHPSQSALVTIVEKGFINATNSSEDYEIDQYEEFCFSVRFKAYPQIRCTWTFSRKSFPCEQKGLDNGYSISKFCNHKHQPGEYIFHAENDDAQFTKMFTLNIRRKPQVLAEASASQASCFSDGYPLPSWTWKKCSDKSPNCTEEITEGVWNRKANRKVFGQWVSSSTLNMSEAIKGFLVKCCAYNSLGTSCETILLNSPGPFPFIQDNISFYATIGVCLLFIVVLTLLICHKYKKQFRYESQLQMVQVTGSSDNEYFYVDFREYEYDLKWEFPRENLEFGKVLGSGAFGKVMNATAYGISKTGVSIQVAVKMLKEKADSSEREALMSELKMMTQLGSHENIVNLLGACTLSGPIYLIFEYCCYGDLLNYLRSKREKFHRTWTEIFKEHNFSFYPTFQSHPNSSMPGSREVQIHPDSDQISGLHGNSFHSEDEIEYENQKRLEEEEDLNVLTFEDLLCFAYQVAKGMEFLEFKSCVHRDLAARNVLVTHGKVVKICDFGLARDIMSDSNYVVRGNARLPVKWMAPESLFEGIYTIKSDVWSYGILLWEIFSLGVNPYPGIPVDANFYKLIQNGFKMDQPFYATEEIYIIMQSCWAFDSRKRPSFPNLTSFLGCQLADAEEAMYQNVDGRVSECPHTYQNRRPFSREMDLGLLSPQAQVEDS
Description: as §1

CDK2/CyclinA = biological target: T4, CDK2/CyclinA (Homo sapiens, UniProt P24941); experiment: In vitro kinase activity assay (PKLight), CDK2/Cyclin A; type: biochemical; conditions: 0.5 μM ATP
T4 construct: purchased Invitrogen PV3267
Description: The recombinant enzymes (CDK2/CyclinA, FLT3, JAK2 and JAK2 V617F) were purchased from Invitrogen (Cat #PV3267, 3182, 4210 and 4347 respectively). All assays were carried out in 384-well white microtiter plates using the PKLight assay system from Cambrex (East Rutherford, N.J.). This assay platform is essentially a luminometric assay for the detection of ATP in the reaction using a luciferase-coupled reaction. For CDK2/Cyclin A assay, the reaction mixture consisted of the following components in 25 μL assay buffer (50 mM Hepes pH 7.5, 10 mM MgCl2, 5 mM MnCl2, 5 mM BGP, 1 mM DTT, 0.1 mM sodium orthovanadate), 1.4 μg/mL of CDK2/Cyclin A complex, 0.5 μM of RbING substrate (Invitrogen, Cat #PV2939) and 0.5 μM of ATP. The compounds were tested at 8 concentrations prepared from 4-fold serial dilution starting at 10 μM. The reaction was incubated at room temperature for 2 hr. 13 μL of PKLight ATP detection reagent was added and the reaction was incubated for 10 min. Luminescence signals were detected on a multi-label plate reader (Victor^2 V 1420, Perkin-Elmer). The other kinase assays were identical except for the following differences in reagents. For FLT3 assays, the reaction contained 2.0 μg/mL FLT3 enzyme, 5 μM of poly(Glu,Tyr) substrate (Sigma, Cat #P0275) and 4 μM of ATP. For JAK2 assays, the reaction contained 0.6 μg/mL of JAK2 enzyme, 2 μM of poly(Glu,Ala,Tyr) substrate (Sigma, Cat #P3899) and 0.2 μM of ATP. For JAK2 V617F mutant assays, the reaction contained 8.0 μg/mL of JAK2 mutant enzyme, 2 μM of poly(Glu,Ala,Tyr) substrate (Sigma, Cat #P3899) and 0.2 μM of ATP. The analytical software, Prism 4.0 (GraphPad Software Pte Ltd) was used to generate IC50 values from the data.

T1 sequence (O60674 whole entry): as the sequence (O60674 whole entry V617F) above, with F617V counted along it

`CCN(CC)CCOc1ccc2cc1COC/C=C/CCOc1cccc(c1)-c1ccnc(n1)N2` [Compound 19] gave an IC50 (JAK2) of no more than 1000 nM, a GI50 [1] of no more than 1000 nM and a GI50 [2] of no more than 1000 nM. For the same compound, the IC50 (JAK2 V617F) was no more than 1000 nM, the GI50 [3] was no more than 1000 nM and the GI50 [4] was no more than 1000 nM. The IC50 (FLT3) was no more than 1000 nM and the IC50 (CDK2/CyclinA) was greater than 5000 nM.
